Assay results published in patent publication US5607967A, “Treatment of alzheimer's disease with 5-(tetradecyloxy)-2-furan carboxylic acid” (Merck & Co., Inc., priority 1994, dated 1997).
Values joined by “and” are separate entries in the source; they are usually repeats but may differ in a detail not shown here. Equal values may be shown once.

What was measured:
acetyl-CoA carboxylase = conditions: high doses, i.e. 0.15% of diet; cited from earlier work
human NUCI receptor = biological target: T1, human NUCI receptor (Homo sapiens, UniProt Q03181); assay: Transcription assay, native NUC-I receptor co-transfected with MMTV-luciferase reporter
T1 sequence (Q03181 1-441): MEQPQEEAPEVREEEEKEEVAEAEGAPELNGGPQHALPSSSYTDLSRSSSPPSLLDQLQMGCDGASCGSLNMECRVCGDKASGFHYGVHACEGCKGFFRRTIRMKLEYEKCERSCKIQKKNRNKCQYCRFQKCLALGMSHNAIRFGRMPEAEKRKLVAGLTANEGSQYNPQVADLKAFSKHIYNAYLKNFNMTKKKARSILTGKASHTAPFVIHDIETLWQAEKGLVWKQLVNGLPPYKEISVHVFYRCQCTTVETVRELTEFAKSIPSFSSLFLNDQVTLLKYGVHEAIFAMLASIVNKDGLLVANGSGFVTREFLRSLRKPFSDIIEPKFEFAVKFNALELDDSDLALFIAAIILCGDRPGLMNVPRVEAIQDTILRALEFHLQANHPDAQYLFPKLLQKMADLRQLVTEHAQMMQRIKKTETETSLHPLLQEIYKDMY
Protocol: The reporter gene was the plasmid pJA358 in which the expression of firefly luciferase is regulated by two tandem repeats of the glucocorticoid hormone response element (GRE) linked to the MMTV promoter (Boie et al., 1993).
Transient transfection of COS and CV1 cells was performed as described (Schmidt 1992). Cells were plated (1.5×10^5 in 1 mL) into 12 well dishes in phenol red-free medium supplemented with activated charcoal treated fetal calf serum. The next day 0.12 mL of DNA 10 μg/ml (5 μg receptor DNA and 5 μg reporter plasmid), as a calcium phosphate precipitate, was added to the cells. Ligands were added to the cells 30 minutes after transfection. The next day (18 hours), the cells were washed and fresh ligands added. Twenty-four hours later, cell extracts were prepared and assayed for luciferase enzyme activity using the luciferase assay system (Promega Madison, Wis.). Each transfection was performed in triplicate and the luciferase activity of each sample measured in duplicate using the AutoClinilumat (Berthold Nashua, N.H.).
The transfected cells were treated with TOFA at 2 μM, 10 μM, 20 μM, and 50 μM and oleic acid at 50 μM, and 300 μM.

[1] = biological target: T2, GR/PPAR chimeric receptor (Mus musculus, UniProt P23204); assay: Ligand dependent transcription assay, GR/PPAR chimeric receptor with MMTV-luciferase reporter; assay type: cell-based; conditions: read-out: Fold of stimulation GR/PPAR
T2 construct: COS cells, MMTV-luciferase
T2 sequence (P23204 1-468): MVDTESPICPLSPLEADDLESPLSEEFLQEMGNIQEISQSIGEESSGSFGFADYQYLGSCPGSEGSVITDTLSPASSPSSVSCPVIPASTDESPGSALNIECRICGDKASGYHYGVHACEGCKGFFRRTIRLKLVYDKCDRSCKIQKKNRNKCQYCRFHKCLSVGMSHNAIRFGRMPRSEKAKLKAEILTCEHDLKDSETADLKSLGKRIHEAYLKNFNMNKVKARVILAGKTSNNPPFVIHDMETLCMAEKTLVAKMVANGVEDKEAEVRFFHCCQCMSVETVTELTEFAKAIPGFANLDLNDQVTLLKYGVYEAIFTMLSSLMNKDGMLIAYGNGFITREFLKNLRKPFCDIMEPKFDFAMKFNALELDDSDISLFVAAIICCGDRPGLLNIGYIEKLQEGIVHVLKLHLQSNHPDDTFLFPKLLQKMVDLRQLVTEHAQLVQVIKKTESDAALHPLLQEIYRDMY
T2 sequence (P06537 1-792 partner): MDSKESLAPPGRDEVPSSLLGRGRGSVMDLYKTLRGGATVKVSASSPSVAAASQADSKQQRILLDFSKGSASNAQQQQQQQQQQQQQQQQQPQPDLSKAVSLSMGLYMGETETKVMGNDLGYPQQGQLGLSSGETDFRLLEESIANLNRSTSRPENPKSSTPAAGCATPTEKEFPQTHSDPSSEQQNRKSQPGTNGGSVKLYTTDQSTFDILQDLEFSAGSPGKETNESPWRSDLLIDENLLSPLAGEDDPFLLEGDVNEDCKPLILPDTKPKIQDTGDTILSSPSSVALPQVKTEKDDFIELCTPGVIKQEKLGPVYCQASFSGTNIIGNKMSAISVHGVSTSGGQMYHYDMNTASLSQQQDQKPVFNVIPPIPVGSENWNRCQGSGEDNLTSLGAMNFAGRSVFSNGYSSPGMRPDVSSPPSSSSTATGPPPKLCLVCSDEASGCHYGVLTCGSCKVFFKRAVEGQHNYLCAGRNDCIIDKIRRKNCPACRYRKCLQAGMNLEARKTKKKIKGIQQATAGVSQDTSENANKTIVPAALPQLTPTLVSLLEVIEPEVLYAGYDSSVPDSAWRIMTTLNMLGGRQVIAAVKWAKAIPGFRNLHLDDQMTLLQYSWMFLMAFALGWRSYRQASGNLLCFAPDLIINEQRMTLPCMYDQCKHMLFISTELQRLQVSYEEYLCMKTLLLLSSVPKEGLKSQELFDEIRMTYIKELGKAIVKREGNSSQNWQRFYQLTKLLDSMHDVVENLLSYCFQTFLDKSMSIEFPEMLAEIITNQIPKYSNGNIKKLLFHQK

PC12 cells = assay: Neurite differentiation of PC12 cells; assay type: cell-based; conditions: for % Cells Bearing Neurites / Average length of neurites: 4 days, mean ±SEM
Protocol: To further study the influence of TOFA on the nervous system, we tested the effect of TOFA on the differentiation of PC12 cells. PC12 cells were plated at a density of approximately 100-200/mm^2 on collagen coated plates or dishes in RPMI medium supplemented with 10% horse serum, 5% fetal calf serum, […] streptomycin, 50 U/mL penicillin in a water saturated atmosphere of 95% air and 5% CO2, at 37° C. overnight. Medium was replaced with fresh RPMI containing 1.5% serum, 100 ng/mL NGF and the indicated concentration of TOFA or an equivalent volume of vehicle (DMSO) giving a final concentration of 0.1% DMSO.
At different time points during the treatment, cells were photographed or fixed with 10% formalin. Morphology was examined after four days of treatment with TOFA or vehicle (DMSO). The number of cells beating neurites and average length of neurites were determined with the aid of the Bioquant imaging system. […] However, as depicted in Table 6 below, NGF alone induced a 15% increase in the number of cells bearing neurites and these outgrowths reached a mean length of 20 μm. Treatment with NGF and TOFA increased the percentage of cells beating neurites to 78%. Maximal neurite generation is observed at a concentration of 10 μM TOFA.
Cells were treated with vehicle (0.1% DMSO) or various concentrations of TOFA in the presence of 100 ng/mL NGF for 4 days, and then fixed with 10% formalin. At least eighty cells from eight wells were analyzed in each group. The results are shown as the mean ±SEM. ^a p<0.01, versus vehicle by Dunnetts test.

[2] = read-out: Fold of stimulation NUC-I

CCCCCCCCCCCCCCOc1ccc(C(=O)O)o1 [TOFA, 5-(tetradecyloxy)-2-furan carboxylic acid]
Fatty acid synthesis in vivo (acetyl-CoA carboxylase): inhibit fatty acid synthesis
Expression of MMTV-luciferase reporter after co-transfection of native NUCI (human NUCI receptor): did not stimulate expression
fold induction at 2 µM (human NUCI receptor; [2]): 0.83 ± 0.12
fold induction at 10 µM (human NUCI receptor; [2]): 0.94 ± 0.08
fold induction at 50 µM (human NUCI receptor; [2]): 1.27 ± 0.06
fold induction at 2 µM [1]: 2.89 ± 0.13
fold induction at 20 µM [1]: 5.75 ± 0.14
% Cells Bearing Neurites (PC12 cells; 0.1 μM TOFA with 100 ng/mL NGF): 14.27 ± 3.51%
Average length of neurites (PC12 cells; 0.1 μM TOFA with 100 ng/mL NGF): 23.67 ± 2.86 μm
% Cells Bearing Neurites (PC12 cells; 1.0 μM TOFA with 100 ng/mL NGF): 24.07 ± 3.06%
Average length of neurites (PC12 cells; 1.0 μM TOFA with 100 ng/mL NGF): 28.63 ± 3.92 μm
% Cells Bearing Neurites (PC12 cells; 10 μM TOFA with 100 ng/mL NGF): 78% and 78.39 ± 4.89%
Average length of neurites (PC12 cells; 10 μM TOFA with 100 ng/mL NGF): 32.43 ± 2.38 μm
Concentration of maximal neurite generation (PC12 cells; with 100 ng/mL NGF): 10 µM
